Structures can show the parent of a compound that is named as a salt.
Each compound was assayed against T1, SOS1 (Homo sapiens, UniProt Q07889) (assay: biochemical).
T1 sequence (Q07889 1-1333): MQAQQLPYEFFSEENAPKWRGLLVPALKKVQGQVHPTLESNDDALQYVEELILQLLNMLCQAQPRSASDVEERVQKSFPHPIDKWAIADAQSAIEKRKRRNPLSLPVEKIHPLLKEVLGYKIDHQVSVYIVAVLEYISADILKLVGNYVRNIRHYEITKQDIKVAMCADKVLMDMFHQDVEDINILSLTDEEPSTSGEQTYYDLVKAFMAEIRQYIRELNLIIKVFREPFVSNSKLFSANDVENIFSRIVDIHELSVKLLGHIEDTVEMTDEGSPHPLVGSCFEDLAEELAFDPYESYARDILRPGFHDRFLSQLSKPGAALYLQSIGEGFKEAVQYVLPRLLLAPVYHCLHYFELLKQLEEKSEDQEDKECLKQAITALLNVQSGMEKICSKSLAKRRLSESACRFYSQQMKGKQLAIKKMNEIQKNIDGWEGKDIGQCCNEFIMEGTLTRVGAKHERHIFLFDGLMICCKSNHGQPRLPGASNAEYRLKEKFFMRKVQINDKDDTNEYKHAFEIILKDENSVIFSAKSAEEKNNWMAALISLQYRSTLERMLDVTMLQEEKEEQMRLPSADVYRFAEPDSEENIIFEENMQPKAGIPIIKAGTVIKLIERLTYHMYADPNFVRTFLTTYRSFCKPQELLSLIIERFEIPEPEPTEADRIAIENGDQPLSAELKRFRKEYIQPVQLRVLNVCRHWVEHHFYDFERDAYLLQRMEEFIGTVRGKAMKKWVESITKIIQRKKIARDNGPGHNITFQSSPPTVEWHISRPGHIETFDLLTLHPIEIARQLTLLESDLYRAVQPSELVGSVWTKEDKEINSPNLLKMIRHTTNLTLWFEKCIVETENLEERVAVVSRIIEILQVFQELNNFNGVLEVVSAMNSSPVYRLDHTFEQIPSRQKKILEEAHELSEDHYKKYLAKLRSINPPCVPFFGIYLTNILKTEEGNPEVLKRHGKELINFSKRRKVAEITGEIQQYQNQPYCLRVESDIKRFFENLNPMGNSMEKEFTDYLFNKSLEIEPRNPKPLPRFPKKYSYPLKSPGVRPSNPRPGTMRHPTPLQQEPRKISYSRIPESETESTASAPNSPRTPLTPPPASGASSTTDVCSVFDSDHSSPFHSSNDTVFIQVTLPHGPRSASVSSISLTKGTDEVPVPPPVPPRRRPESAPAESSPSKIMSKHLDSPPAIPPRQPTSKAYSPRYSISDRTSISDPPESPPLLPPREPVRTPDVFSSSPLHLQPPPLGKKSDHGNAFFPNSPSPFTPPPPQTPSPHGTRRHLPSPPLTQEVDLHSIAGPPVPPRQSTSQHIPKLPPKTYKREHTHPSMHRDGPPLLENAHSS

SMILES | IC50
C[C@@H](Nc1nnc(N2CC(F)(F)C2)c2cc(=O)n(C3CC3)cc12)c1cccc(C(F)F)c1F [Example 20, (R)-6-cyclopropyl-1-(3,3-difluoroazetidin-1-yl)-4-((1-(3-(difluoromethyl)-2-fluorophenyl)ethyl)amino)pyrido[3,4-d]pyridazin-7(6H)-one] | 23.8 nM
C[C@@H](Nc1nnc(N2CCS(=O)(=O)CC2)c2cc(=O)n(C3CC3)cc12)c1cccc(C(F)F)c1F [Example 24, (R)-6-cyclopropyl-4-((1-(3-(difluoromethyl)-2-fluorophenyl)ethyl)amino)-1-(1,1-dioxidothiomorpholino)pyrido[3,4-d]pyridazin-7(6H)-one] | 12.7 nM
C[C@@H](Nc1nnc(N2CC3CCC(C2)N3C)c2cc(=O)n(C3(C)CC3)cc12)c1cccc(C(F)F)c1F [Example 193] | 4.3 nM
C[C@@H](Nc1nnc(N2CCC3(CC2)CNC(=O)C3)c2cc(=O)n(C3(C)CC3)cc12)c1cccc(C(F)F)c1F [Example 204, (R)-4-((1-(3-(difluoromethyl)-2-fluorophenyl)ethyl)amino)-6-(1-methylcyclopropyl)-1-(3-oxo-2,8-diazaspiro[4.5]decan-8-yl)pyrido[3,4-d]pyridazin-7(6H)-one] | 8 nM
Cc1c(C#N)cccc1[C@@H](C)Nc1nnc(N2CC(F)(F)C2)c2cc(=O)n(C3(C)CC3)cc12 [Example 48, (R)-3-(1-((1-(3,3-difluoroazetidin-1-yl)-6-(1-methylcyclopropyl)-7-oxo-6,7-dihydropyrido[3,4-d]pyridazin-4-yl)amino)ethyl)-2-methylbenzonitrile] | 46.5 nM
C[C@@H](Nc1nnc(N(C)CCN(C)C)c2cc(=O)n(C3(C)CC3)cc12)c1cccc(C(F)F)c1F [Example 124, (R)-4-((1-(3-(difluoromethyl)-2-fluorophenyl)ethyl)amino)-1-((2-(dimethylamino)ethyl)(methyl)amino)-6-(1-methylcyclopropyl) pyrido[3,4-d]pyridazin-7(6H)-one formate] | 5.8 nM
Cc1c([C@@H](C)Nc2nnc(N3CCC[C@H]3C)c3cc(=O)n(C4(C)CC4)cc23)cccc1C(F)(F)F [Example 63, 4-(((R)-1-(2-methyl-3-(trifluoromethyl)phenyl)ethyl)amino)-6-(1-methylcyclopropyl)-1-((R)-2-methylpyrrolidin-1-yl)pyrido[3,4-d]pyridazin-7(6H)-one] | 7.8 nM
Cc1c([C@@H](C)Nc2nnc(N3CCN(C4CCCC4)CC3)c3cc(=O)n(C4(C)CC4)cc23)cccc1C(F)(F)F [Example 96, (R)-1-(4-cyclopentylpiperazin-1-yl)-4-((1-(2-methyl-3-(trifluoromethyl)phenyl)ethyl)amino)-6-(1-methylcyclopropyl) pyrido[3,4-d]pyridazin-7(6H)-one] | 7.4 nM
C[C@@H](Nc1nnc(N2CCC3(CCCC3)CC2)c2cc(=O)n(C3(C)CC3)cc12)c1cccc(C(F)F)c1F [Example 185, (R)-4-((1-(3-(difluoromethyl)-2-fluorophenyl)ethyl)amino)-6-(1-methylcyclopropyl)-1-(8-azaspiro[4.5]decan-8-yl)pyrido[3,4-d]pyridazin-7(6H)-one] | 84.3 nM
C[C@@H](Nc1nnc(N(C)C)c2cc(=O)n(C3CC3)cc12)c1cccc(C(F)F)c1F [Example 76, (R)-6-cyclopropyl-4-((1-(3-(difluoromethyl)-2-fluorophenyl)ethyl)amino)-1-(dimethylamino) pyrido[3,4-d]pyridazin-7(6H)-one] | 9.2 nM
Cc1c([C@@H](C)Nc2nnc(N3CCN(C4CC4)CC3)c3cc(=O)n(C4(C)CC4)cc23)cccc1C(F)(F)F [Example 92, (R)-1-(4-cyclopropylpiperazin-1-yl)-4-((1-(2-methyl-3-(trifluoromethyl)phenyl)ethyl)amino)-6-(1-methylcyclopropyl) pyrido[3,4-d]pyridazin-7(6H)-one] | 10.2 nM
CCN1CCN(c2nnc(N[C@H](C)c3cccc(C#N)c3C)c3cn(N4CC5CCCC5C4)c(=O)cc23)CC1 (stereo partly drawn) [Example 153, 3-((1R)-1-((6-(hexahydrocyclopenta[c]pyrrol-2(1H)-yl)-1-(4-ethylpiperazin-1-yl)-7-oxo-6,7-dihydropyrido[3,4-d]pyridazin-4-yl)amino)ethyl)-2-methylbenzonitrile] | 4.6 nM
CCN1CCN(c2nnc(N[C@H](C)c3cccc(C(F)F)c3F)c3cn(CC)c(=O)cc23)CC1 [Example 117, (R)-4-((1-(3-(difluoromethyl)-2-fluorophenyl)ethyl)amino)-6-ethyl-1-(4-ethylpiperazin-1-yl)pyrido[3,4-d]pyridazin-7(6H)-one] | 8.2 nM
CCN1CCN(c2nnc(N[C@H](C)c3cccc(C#N)c3C)c3cn(C)c(=O)cc23)CC1 [Example 145, (R)-3-(1-((1-(4-ethylpiperazin-1-yl)-6-methyl-7-oxo-6,7-dihydropyrido[3,4-d]pyridazin-4-yl)amino)ethyl)-2-methylbenzonitrile formate] | 7.8 nM
CC(C)n1cc2c(N[C@H](C)c3cccc(C(F)F)c3F)nnc(N3CCN(C)CC3)c2cc1=O [Example 114, (R)-4-((1-(3-(difluoromethyl)-2-fluorophenyl)ethyl)amino)-6-isopropyl-1-(4-methylpiperazin-1-yl)pyrido[3,4-d]pyridazin-7(6H)-one formate] | 6 nM
CCN1CCN(c2nnc(N[C@H](C)c3cc(N)cc(C)c3F)c3cn(C4(C)CC4)c(=O)cc23)CC1 [Example 160, (R)-4-((1-(5-amino-2-fluoro-3-methylphenyl)ethyl)amino)-1-(4-ethylpiperazin-1-yl)-6-(1-methylcyclopropyl) pyrido[3,4-d]pyridazin-7(6H)-one formate] | 5.7 nM
C[C@@H](Nc1nnc(N2CCN(C3CCCC3)CC2)c2cc(=O)n(C3(C)CC3)cc12)c1cccc(C(F)(F)F)c1F [Example 171, (R)-4-((1-(2-fluoro-3-(trifluoromethyl)phenyl)ethyl)amino)-1-(4-cyclopentylpiperazin-1-yl)-6-(1-methylcyclopropyl) pyrido[3,4-d]pyridazin-7(6H)-one] | 5 nM
C[C@@H](Nc1nnc(NC2CCN(C)CC2)c2cc(=O)n(C3(C)CC3)cc12)c1cccc(C(F)F)c1F [Example 123, (R)-4-((1-(3-(difluoromethyl)-2-fluorophenyl)ethyl)amino)-6-(1-methylcyclopropyl)-1-((1-methylpiperidin-4-yl)amino)pyrido[3,4-d]pyridazin-7(6H)-one formate] | 3.8 nM
Cc1cc(N)cc([C@@H](C)Nc2nnc(N3CCN(C)CC3)c3cc(=O)n(C4(C)CC4)cc23)c1F [Example 152, (R)-4-((1-(5-amino-2-fluoro-3-methylphenyl)ethyl)amino)-6-(1-methylcyclopropyl)-1-(4-methylpiperazin-1-yl)pyrido[3,4-d]pyridazin-7(6H)-one] | 4.2 nM
Cc1c(C#N)cccc1[C@@H](C)Nc1nnc(N2CCN(C)[C@H](C)C2)c2cc(=O)n(N3CC4CCCC4C3)cc12 (stereo partly drawn) [Example 167, 3-((1R)-1-((1-((R)-3,4-dimethylpiperazin-1-yl)-6-(hexahydrocyclopenta[c]pyrrol-2(1H)-yl)-7-oxo-6,7-dihydropyrido[3,4-d]pyridazin-4-yl)amino)ethyl)-2-methylbenzonitrile] | 6.3 nM
C[C@@H](Nc1nnc(N2CCC3(CCC3)CC2)c2cc(=O)n(C3(C)CC3)cc12)c1cccc(C(F)F)c1F [Example 184, (R)-4-((1-(3-(difluoromethyl)-2-fluorophenyl)ethyl)amino)-6-(1-methylcyclopropyl)-1-(7-azaspiro[3.5]nonan-7-yl)pyrido[3,4-d]pyridazin-7(6H)-one] | 40.2 nM
C[C@@H](Nc1nnc(N2CCC3(CC2)CC3(F)F)c2cc(=O)n(C3(C)CC3)cc12)c1cccc(C(F)F)c1F [Example 186, (R)-1-(1,1-difluoro-6-azaspiro[2.5]octan-6-yl)-4-((1-(3-(difluoromethyl)-2-fluorophenyl)ethyl)amino)-6-(1-methylcyclopropyl) pyrido[3,4-d]pyridazin-7(6H)-one] | 31.1 nM
CCN(CC)c1nnc(N[C@H](C)c2cccc(C(F)(F)F)c2C)c2cn(C3(C)CC3)c(=O)cc12 [Example 60, (R)-1-(diethylamino)-4-((1-(2-methyl-3-(trifluoromethyl)phenyl)ethyl)amino)-6-(1-methylcyclopropyl) pyrido[3,4-d]pyridazin-7(6H)-one] | 20.9 nM

Source: patent EP4722213A1, “NITROGEN-CONTAINING FUNCTIONAL GROUP-SUBSTITUTED PYRIDAZINOPYRIDONE DERIVATIVE AND USE THEREOF” (Sichuan Huiyu Pharmaceutical Co., Ltd., priority 2023, dated 2024)
